Assay [1] deals with rat pituitary cells in tissue culture. Put plainly: Bioassay of hGRF analogs: GH release from cultured pituitary cells. Type of assay: cell-based. The note with it: for Dose Needed to Release 2.01 μg/ml of GH (ED50 value for hGRF) / Maximum GH Released / Relative Maximum Activity (% of hGRF): from curves generated by ALLFIT; for GH release at dosages comparable to native hGRF: referring to Table 1; for Potency: (ED50 of hGRF)/(Dose required to give same response as ED50 of hGRF): relative to hGRF(1-44)-NH2 = 100. The source says:
The assay for biological activity, which is based on the ability to stimulate release of growth hormone in rat pituitary cells in tissue culture, has been described in detail (Culler, M. D.; Kenjo, T.: Obara, N.; Arimuar, A., Stimulation of cAMP. Accumulation by Human Pancreatic GH-Releasing Factor-(1-44). Am. J. Physiol. 1984, 247 (Endocrinol.Metab.10), E609-E615.
ALLFIT, the 4-parameter logistic curve fitting program available from the Biomedical Computer Technology Information Center, Vanderbilt Medical Center, Nashville TN, was used to determine ED50 and maximal stimulated values from the data. In several instances, the amount of GH released reached a maximum value and decreased with further increasing doses of the hGRF analogs. To simplify the data analysis, these values were not used in the calculations. The calculated maximal responses, the doses of the analog required to release the amount of GH released at the ED50 of the standard (hGRF) and the potencies of the analogs relative to hGRF, are given in Table 2. Generally all novel analogs were fully active and were able to stimulate the release of growth hormone with maximal values of GH release being within 80% of the value for natural hGRF.

The test system of assay [2] is GH releasing activity. The note with it: reported by Rivier et al.; cited from earlier work.

Square brackets hold non-standard residues; d marks the D form. Ends that are not written are not given here. Peptide text beside a SMILES is read from it. Nle = CCCC[C@H](N)C(=O)O

On to `CCCC[C@H](NC(=O)[C@@H](NC(=O)[C@H](CC(N)=O)NC(=O)[C@H](CCC(N)=O)NC(=O)[C@H](CC(C)C)NC(=O)[C@H](CC(C)C)NC(=O)[C@H](CCCCN)NC(=O)[C@H](CCCNC(=N)N)NC(=O)[C@H](C)NC(=O)[C@H](CO)NC(=O)[C@H](CC(C)C)NC(=O)[C@H](CCC(N)=O)NC(=O)CNC(=O)[C@H](CC(C)C)NC(=O)[C@@H](NC(=O)[C@H](CCCCN)NC(=O)[C@H](CCCNC(=N)N)NC(=O)[C@H](Cc1ccc(O)cc1)NC(=O)[C@H](CO)NC(=O)[C@H](CC(=O)O)NC(=O)[C@@H](NC(=O)[C@H](Cc1ccccc1)NC(=O)[C@@H](NC(=O)[C@H](C)NC(=O)[C@H](CC(=O)O)NC(=O)[C@H](C)NC(=O)[C@@H](N)Cc1ccc(O)cc1)[C@@H](C)CC)[C@@H](C)O)C(C)C)[C@@H](C)CC)C(=O)N[C@@H](CO)C(=O)N[C@@H](CCCNC(=N)N)C(=O)N[C@@H](CCC(N)=O)C(=O)N[C@@H](CCC(N)=O)C(N)=O` [[Asp^8,Asn^25,Nle^27], [Asp^8,Asn^25,Nle^27]-hGRF(1-31)--NH2] (H-YADAIFTDSYRKVLGQLSARKLLQNI[Nle]SRQQ-NH2), for which the “GH Released (mean ± (S.E.))” value in assay [1] (Dose 1 × 10^-6 M) is reported as 2.86 (0.07) μg/mL; in assay [1] (Dose 1 × 10^-7 M), 2.93 (0.17) μg/mL; in assay [1] (Dose 1 × 10^-8 M) it was 2.86 (0.08) μg/mL; in assay [1] (Dose 1 × 10^-9 M), 2.59 (0.17) μg/mL; in assay [1] (Dose 1 × 10^-10 M), 0.96 (0.07) μg/mL; in assay [1] (Dose 1 × 10^-11 M), 0.74 (0.09) μg/mL. Also, the “Dose Needed to Release 2.01 μg/ml of GH (ED50 value for hGRF)” value (from here on “Dose Needed to Release 2.01 μg/ml of GH”) in assay [1] amounted to 0.42 nM. In assay [1], the “Maximum GH Released” value is 2.89 µg/mL. Further, in assay [1], the “Relative Maximum Activity (% of hGRF)” value is 87%. Moreover, in assay [1], the “GH release at dosages comparable to native hGRF” value is recorded as “induced GH release in dosages comparable to those for native hGRF”. Also, in assay [1], the “Potency: (ED50 of hGRF)/(Dose required to give same response as ED50 of hGRF)” value is on record as 76%.

`CCCC[C@H](NC(=O)[C@@H](NC(=O)[C@H](CC(=O)O)NC(=O)[C@H](CCC(N)=O)NC(=O)[C@H](CC(C)C)NC(=O)[C@H](CC(C)C)NC(=O)[C@H](CCCCN)NC(=O)[C@H](CCCNC(=N)N)NC(=O)[C@H](C)NC(=O)[C@H](CO)NC(=O)[C@H](CC(C)C)NC(=O)[C@H](CCC(N)=O)NC(=O)CNC(=O)[C@H](CC(C)C)NC(=O)[C@@H](NC(=O)[C@H](CCCCN)NC(=O)[C@H](CCCNC(=N)N)NC(=O)[C@H](Cc1ccc(O)cc1)NC(=O)[C@H](CO)NC(=O)[C@H](CC(=O)O)NC(=O)[C@@H](NC(=O)[C@H](Cc1ccccc1)NC(=O)[C@@H](NC(=O)[C@H](C)NC(=O)[C@H](CC(=O)O)NC(=O)[C@H](C)NC(=O)[C@@H](N)Cc1ccc(O)cc1)[C@@H](C)CC)[C@@H](C)O)C(C)C)[C@@H](C)CC)C(=O)N[C@@H](CO)C(=O)N[C@@H](CCCNC(=N)N)C(=O)N[C@@H](CCC(N)=O)C(=O)N[C@@H](CCC(N)=O)C(N)=O` [[Asp^8,Nle^27], [Asp^8,Nle^27]-hGRF(1-31)---NH2] (H-YADAIFTDSYRKVLGQLSARKLLQDI[Nle]SRQQ-NH2): the “GH Released (mean ± (S.E.))” value is recorded as 3.17 (0.24) μg/mL in assay [1] (Dose 1 × 10^-6 M); 3.52 (0.22) μg/mL in assay [1] (Dose 1 × 10^-7 M); 3.59 (0.17) μg/mL in assay [1] (Dose 1 × 10^-8 M); 2.69 (0.12) μg/mL in assay [1] (Dose 1 × 10^-9 M); 1.18 (0.10) μg/mL in assay [1] (Dose 1 × 10^-10 M); 0.61 (0.03) μg/mL in assay [1] (Dose 1 × 10^-11 M). The “Dose Needed to Release 2.01 μg/ml of GH” value in assay [1] came out at 0.39 nM. Moreover, the “Maximum GH Released” value in assay [1] was 3.60 µg/mL. Moreover, in assay [1], the “Relative Maximum Activity (% of hGRF)” value is on record as 109%. The “GH release at dosages comparable to native hGRF” value in assay [1] is given as “induced GH release in dosages comparable to those for native hGRF”. The “Potency: (ED50 of hGRF)/(Dose required to give same response as ED50 of hGRF)” value in assay [1] is 82%.

Turning to `CC[C@H](C)[C@H](NC(=O)[C@H](C)NC(=O)[C@H](CC(=O)O)NC(=O)[C@H](C)NC(=O)[C@@H](N)Cc1ccc(O)cc1)C(=O)N[C@@H](Cc1ccccc1)C(=O)N[C@H](C(=O)N[C@@H](CC(N)=O)C(=O)N[C@@H](CO)C(=O)N[C@@H](Cc1ccc(O)cc1)C(=O)N[C@@H](CCCNC(=N)N)C(=O)N[C@@H](CCCCN)C(=O)N[C@H](C(=O)N[C@@H](CC(C)C)C(=O)NCC(=O)N[C@@H](CCC(N)=O)C(=O)N[C@@H](CC(C)C)C(=O)N[C@@H](CO)C(=O)N[C@@H](C)C(=O)N[C@@H](CCCNC(=N)N)C(=O)N[C@@H](CCCCN)C(=O)N[C@@H](CC(C)C)C(=O)N[C@@H](CC(C)C)C(=O)N[C@@H](CCC(N)=O)C(=O)N[C@@H](CC(=O)O)C(=O)N[C@H](C(=O)N[C@@H](CCSC)C(=O)N[C@@H](CO)C(=O)N[C@@H](CCCNC(=N)N)C(=O)N[C@@H](CCC(N)=O)C(=O)N[C@@H](CCC(N)=O)C(=O)NCC(=O)N[C@@H](CCC(=O)O)C(=O)N[C@@H](CO)C(=O)N[C@@H](CC(N)=O)C(=O)N[C@@H](CCC(N)=O)C(=O)N[C@@H](CCC(=O)O)C(=O)N[C@@H](CCCNC(=N)N)C(=O)NCC(=O)N[C@@H](C)C(=O)N[C@@H](CCCNC(=N)N)C(=O)N[C@@H](C)C(=O)N[C@@H](CCCNC(=N)N)C(=O)N[C@@H](CC(C)C)C(N)=O)[C@@H](C)CC)C(C)C)[C@@H](C)O` [hGRF(1-44)-NH2, hGRF(1-44)--NH2, reference compound], the “GH Released (mean ± (S.E.))” value in assay [1] (Dose 1 × 10^-6 M) is 2.81 (0.13) μg/mL; in assay [1] (Dose 1 × 10^-7 M), 3.17 (0.12) μg/mL; in assay [1] (Dose 1 × 10^-8 M), 3.44 (0.23) μg/mL; in assay [1] (Dose 1 × 10^-9 M), 2.84 (0.12) μg/mL; in assay [1] (Dose 1 × 10^-10 M) it was 1.16 (0.04) μg/mL; in assay [1] (Dose 1 × 10^-11 M), 0.73 (0.03) μg/mL. For the same molecule, the “Dose Needed to Release 2.01 μg/ml of GH” value in assay [1] turned out to be 0.32 nM. Further, the “Maximum GH Released” value in assay [1] stood at 3.31 µg/mL. Moreover, the “Relative Maximum Activity (% of hGRF)” value in assay [1] is recorded as 100%. Further, in assay [1] (natural hGRF isolated from a human pancreatic tumor (Salk Institute standard)), the “Biological activity compared with natural hGRF(1-44)--NH2” value was “identical to the natural hGRF(1-44)--NH2”. Also, in assay [1], the “Potency: (ED50 of hGRF)/(Dose required to give same response as ED50 of hGRF)” value turned out to be 100%.

In the case of “hpGRF(1-27)--NH2 (YADAIFTNSYRKVLGQLSARKLLQDIM-NH2; UniProt P01286 32-58, looked up, fragment) [shortened GRF analog tested by Rivier et al]”, in assay [2], the “activity compared in vitro with the parent hpGRF(1-40)--OH” value (“activity compared in vitro” below) is “exhibited similar activity”.

“hpGRF(1-29)--NH2 (YADAIFTNSYRKVLGQLSARKLLQDIMSR-NH2; UniProt P01286 32-60, looked up, fragment) [shortened GRF analog tested by Rivier et al]”: the “activity compared in vitro” value in assay [2] is “exhibited similar activity”.

On to “hpGRF(1-32)--NH2 (YADAIFTNSYRKVLGQLSARKLLQDIMSRQQG-NH2; UniProt P01286 32-63, looked up, fragment) [shortened GRF analog tested by Rivier et al]”, for which, in assay [2], the “activity compared in vitro” value is recorded as “exhibited similar activity”.

In the case of “hpGRF(1-39)--NH2 (YADAIFTNSYRKVLGQLSARKLLQDIMSRQQGESNQERG-NH2; UniProt P01286 32-70, looked up, fragment) [shortened GRF analog tested by Rivier et al]”, in assay [2], the “activity compared in vitro” value is given as “exhibited similar activity”.

Take “hpGRF(1-40)--NH2 (YADAIFTNSYRKVLGQLSARKLLQDIMSRQQGESNQERGA-NH2; UniProt P01286 32-71, looked up, fragment) [shortened GRF analog tested by Rivier et al]”: the “activity compared in vitro” value in assay [2] is “exhibited similar activity”.

Source of the values: patent US4801456A, “Growth hormone-releasing factor analogs” (International Minerals & Chemical Corp., priority 1987, dated 1989).
